The Ki is the dissociation constant of the complex between target and ligand, obtained from inhibition or displacement. A low value points to higher affinity. Usually inhibition stands for the relative decrease from the control value, in per cent.

In series [1] the target is Glutamic Acid Decarboxylase (GAD). The experiment in a line: Glutamic Acid Decarboxylase (GAD) Enzyme Assay. The series is classed as biochemical. To be noted: Rat corpus striatal membranes, [14C]L-Glutamic acid. The method, then: Radioimmunoassay studies were conducted with rat corpus striatal membranes using the following method.
Glutamic Acid Decarboxylase (GAD) Enzyme Assay
Rat corpus striatal membranes
Substrate: [^14 C]L-Glutamic acid (30-80 Ci/mmol)
Reactions are incubated in phosphate/mercapoethanol buffer
6.9) for 30 minutes at 37° C. The reaction is
stopped by the addition
of trichloroacetic acid and placement on ice. Radioactive
trapped in phenylethylamine/methanol and quantitated using
scintillation […] in order to ascertain any
of test compounds with the glutamic acid decarboxylase

Series [2] concerns the target T1, Benzodiazepine (Peripheral) (Rattus norvegicus, UniProt P16257).
T1 construct: Rat kidney membranes; from tissue; host or cells: rat kidney membranes
The experiment in a line: Benzodiazepine (Peripheral) Binding Assay. The following applies: read-out: Receptor Binding Activity Percent Inhibition Average (N = 2).

A further series concerns the target T2, Histamine (H2) (Cavia porcellus, UniProt P47747).
T2 construct: Guinea pig striatal membranes; from tissue; host or cells: guinea pig striatal membranes
The experiment in a line: Histamine (H2) Binding Assay. To be noted: 10^-6 M; Guinea pig striatal membranes; [3H]Tiotidine 4.0 nM; read-out: Receptor Binding Activity Percent Inhibition Average (N = 2). Further details: species or system Guinea pig.

Series [3] has as its target T3, recombinant Rat 5HT7 Clone (Rattus norvegicus, UniProt P32305).
T3 construct: expressed in transfected cells
The experiment in a line: Serotonin--5HT7 Clone Binding Assay. To be noted: 10^-6 M, [3H]LSD 2.0 nM, read-out: Receptor Binding Activity Percent Inhibition Average (N = 2).

Series [4] concerns the target Glycine (Strychnine Insensitive) (Rattus norvegicus, UniProt P35439). Briefly: biochemical. The following applies: read-out: Receptor Binding Activity Percent Inhibition Average (N = 2). The series is classed as binding.
The target of series [5] is T4, Human recombinant M2 clone (Homo sapiens, UniProt P08172).
T4 construct: expressed in transfected cells
T4 sequence (P08172 1-466): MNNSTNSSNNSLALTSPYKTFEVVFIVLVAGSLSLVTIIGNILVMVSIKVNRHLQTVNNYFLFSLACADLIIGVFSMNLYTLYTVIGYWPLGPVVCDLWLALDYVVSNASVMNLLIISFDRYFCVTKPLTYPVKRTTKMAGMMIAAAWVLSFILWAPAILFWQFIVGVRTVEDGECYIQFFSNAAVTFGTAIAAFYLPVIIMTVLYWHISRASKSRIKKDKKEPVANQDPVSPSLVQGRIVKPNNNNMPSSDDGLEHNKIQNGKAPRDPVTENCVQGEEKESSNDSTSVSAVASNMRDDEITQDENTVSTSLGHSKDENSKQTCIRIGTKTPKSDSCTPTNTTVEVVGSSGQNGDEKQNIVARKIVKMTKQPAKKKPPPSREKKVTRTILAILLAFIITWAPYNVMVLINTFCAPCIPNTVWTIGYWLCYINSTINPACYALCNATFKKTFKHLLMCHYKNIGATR
The experiment in a line: Muscarinic--M2 Clone Binding Assay. The following applies: read-out: Receptor Binding Activity Percent Inhibition Average (N = 2).

The target in the next series is T5, dopamine uptake site (Cavia porcellus, UniProt H0WCX4).
T5 construct: Guinea pig striatal membranes; from tissue; host or cells: guinea pig striatal membranes
The experiment in a line: Dopamine Reuptake Binding Assay. To be noted: 10^-6 M; Guinea pig striatal membranes; [3H]WIN,35,428 1.0 nM.

In a further series the target is T6, GABA uptake site (Rattus norvegicus, UniProt P23978).
T6 construct: Rat cortical membranes; from tissue; host or cells: rat cortical membranes
The experiment in a line: biochemical. To be noted: read-out: Receptor Binding Activity Percent Inhibition Average (N = 2).

In the next series the test system is Serotonin (5HT1). Briefly: Serotonin (5HT1) Binding Assay. The following applies: 10^-6 M; Rat cortical membranes; [3H]Hydroxytryptamine binoxalate 3.0 nM.
The target of series [6] is T7, Inositol Triphosphate (IP3) (Rattus norvegicus, UniProt P29994).
T7 construct: Rat cerebellar membranes; from tissue; host or cells: rat cerebellar membranes
The experiment in a line: Inositol Triphosphate (IP3) Binding Assay. To be noted: 10^-6 M; Rat cerebellar membranes; [3H]IP3 4.0 nM; read-out: Receptor Binding Activity Percent Inhibition Average (N = 2). Here is the method: Tissue cultures were prepared using standard laboratory practice for the following tissues: human recombinant M1 clone, human recombinant M2 clone, guinea pig striatal membranes, rat cortical membranes, rat striatal membranes, rat forebrain membranes, bovine hippocampal membranes, guinea pig cerebellar membranes, rat kidney membranes, recombinant rat 5HT7 clone, and rat cerebellar membranes.
Inositol Triphosphate (IP3) Binding Assay
Rat cerebellar membranes
Radioligand: [^3 H]IP3 (10-30 Ci/mmol)
Final ligand concentration - [4.0 nM]
D-myo-inositol 1,4,5-triphosphate
Reactions are carried out in 50 mM TRIS-HCl (pH 8.3)
1 mM EDTA at 0° C. for 10 minutes. The reaction is
rapid vacuum filtration onto glass fiber filters.
onto the filters is determined and compared to control
order to ascertain any interactions of test compound with
inositol triphospate binding site.

Series [7] relates to Serotonin (Non-Selective). The experiment in a line: Serotonin (Non-Selective) Binding Assay. The following applies: 10^-6 M; Rat cortical membranes; [3H]Lysergic acid diethylamide 5.0 nM.
The subject of series [8] is glutamatergic transmission. To be noted: application to CNS sites in vitro; cited from earlier work.
For another series, the target named is T8, Histamine (H3) (Rattus norvegicus, UniProt Q9QYN8).
T8 construct: Rat forebrain membranes; from tissue; host or cells: rat forebrain membranes
The experiment in a line: Histamine (H3) Binding Assay. The following applies: 10^-6 M; Rat forebrain membranes; [3H]N^a-methylhistamine 0.2 nM; read-out: Receptor Binding Activity Percent Inhibition Average (N = 2).

For series [9] the following is noted: in the human; in vivo; cited from earlier work.
The target of the next series is T9, Dopamine (D1 Central) (Rattus norvegicus, UniProt P18901).
T9 construct: Rat striatal membranes; from tissue; host or cells: rat striatal membranes
Briefly: Dopamine (D1 Central) Binding Assay. The following applies: 10^-6 M; Rat striatal membranes; [3H]SCH 23390 0.5 nM.

The target of the next series is T10, Opiate (Delta) (Rattus norvegicus, UniProt P33533).
T10 construct: Rat forebrain membranes; from tissue; host or cells: rat forebrain membranes
The experiment in a line: Opiate (Delta) Binding Assay. The following applies: read-out: Receptor Binding Activity Percent Inhibition Average (N = 2).

For another series, the target named is T11, Serotonin (5HT1A) (Bos taurus, UniProt F6Q2H9).
T11 construct: Bovine hippocampal membranes; from tissue; host or cells: bovine hippocampal membranes
T11 sequence (F6Q2H9 1-422): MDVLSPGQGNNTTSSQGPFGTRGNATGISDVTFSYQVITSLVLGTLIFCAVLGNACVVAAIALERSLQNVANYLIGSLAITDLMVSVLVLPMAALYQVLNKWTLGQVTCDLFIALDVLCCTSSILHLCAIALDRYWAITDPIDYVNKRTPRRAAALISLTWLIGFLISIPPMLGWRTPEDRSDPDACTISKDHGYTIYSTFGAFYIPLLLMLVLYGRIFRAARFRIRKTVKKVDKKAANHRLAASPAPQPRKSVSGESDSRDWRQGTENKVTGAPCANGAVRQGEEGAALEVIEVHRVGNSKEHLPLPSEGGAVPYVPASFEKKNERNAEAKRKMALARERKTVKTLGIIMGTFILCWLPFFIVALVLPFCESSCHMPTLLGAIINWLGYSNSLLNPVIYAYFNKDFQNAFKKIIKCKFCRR
The experiment in a line: Serotonin (5HT1A) Binding Assay. The arrangement: species or system Bovine. The following applies: 10^-6 M; Bovine hippocampal membranes; [3H]-8-OH-DPAT 1.0 nM; read-out: Receptor Binding Activity Percent Inhibition Average (N = 2).

T8 sequence (Q9QYN8 whole entry): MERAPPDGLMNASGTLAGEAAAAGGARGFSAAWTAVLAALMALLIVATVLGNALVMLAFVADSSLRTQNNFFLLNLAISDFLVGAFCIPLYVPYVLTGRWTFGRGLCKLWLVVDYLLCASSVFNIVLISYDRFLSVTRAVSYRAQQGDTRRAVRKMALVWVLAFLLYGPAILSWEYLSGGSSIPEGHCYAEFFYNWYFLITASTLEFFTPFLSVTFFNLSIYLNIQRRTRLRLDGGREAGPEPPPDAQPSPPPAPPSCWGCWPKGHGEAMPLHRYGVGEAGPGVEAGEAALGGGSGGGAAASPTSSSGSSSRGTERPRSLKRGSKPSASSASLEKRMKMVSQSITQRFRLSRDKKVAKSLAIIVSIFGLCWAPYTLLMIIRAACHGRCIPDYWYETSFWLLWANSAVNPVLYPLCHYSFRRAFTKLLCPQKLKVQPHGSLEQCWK
T10 sequence (P33533 whole entry): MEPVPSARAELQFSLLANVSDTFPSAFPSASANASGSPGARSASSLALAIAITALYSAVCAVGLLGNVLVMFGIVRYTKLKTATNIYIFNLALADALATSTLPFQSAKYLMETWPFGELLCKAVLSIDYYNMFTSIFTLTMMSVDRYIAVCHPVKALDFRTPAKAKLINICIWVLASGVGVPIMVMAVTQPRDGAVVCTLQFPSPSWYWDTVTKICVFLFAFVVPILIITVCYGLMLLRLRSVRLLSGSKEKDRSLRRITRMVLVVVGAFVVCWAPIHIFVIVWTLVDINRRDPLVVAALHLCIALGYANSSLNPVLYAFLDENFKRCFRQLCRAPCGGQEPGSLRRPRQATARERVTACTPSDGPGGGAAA
T3 sequence (P32305 whole entry): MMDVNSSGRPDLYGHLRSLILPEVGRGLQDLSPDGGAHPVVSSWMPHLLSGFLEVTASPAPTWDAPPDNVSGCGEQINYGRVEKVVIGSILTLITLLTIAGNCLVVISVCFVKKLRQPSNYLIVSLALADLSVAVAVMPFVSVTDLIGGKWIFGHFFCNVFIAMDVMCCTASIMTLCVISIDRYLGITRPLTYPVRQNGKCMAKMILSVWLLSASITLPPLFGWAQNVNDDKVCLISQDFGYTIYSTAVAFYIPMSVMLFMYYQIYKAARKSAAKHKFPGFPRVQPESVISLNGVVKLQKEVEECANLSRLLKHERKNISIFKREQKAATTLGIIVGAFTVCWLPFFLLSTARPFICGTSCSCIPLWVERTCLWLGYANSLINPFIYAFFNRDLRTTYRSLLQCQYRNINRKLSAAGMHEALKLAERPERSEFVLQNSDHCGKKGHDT
T1 sequence (P16257 whole entry): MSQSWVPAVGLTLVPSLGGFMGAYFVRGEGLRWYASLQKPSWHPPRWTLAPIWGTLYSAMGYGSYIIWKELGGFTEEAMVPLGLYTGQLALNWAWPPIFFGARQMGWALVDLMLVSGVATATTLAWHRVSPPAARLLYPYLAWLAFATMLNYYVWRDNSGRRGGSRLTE
T9 sequence (P18901 whole entry): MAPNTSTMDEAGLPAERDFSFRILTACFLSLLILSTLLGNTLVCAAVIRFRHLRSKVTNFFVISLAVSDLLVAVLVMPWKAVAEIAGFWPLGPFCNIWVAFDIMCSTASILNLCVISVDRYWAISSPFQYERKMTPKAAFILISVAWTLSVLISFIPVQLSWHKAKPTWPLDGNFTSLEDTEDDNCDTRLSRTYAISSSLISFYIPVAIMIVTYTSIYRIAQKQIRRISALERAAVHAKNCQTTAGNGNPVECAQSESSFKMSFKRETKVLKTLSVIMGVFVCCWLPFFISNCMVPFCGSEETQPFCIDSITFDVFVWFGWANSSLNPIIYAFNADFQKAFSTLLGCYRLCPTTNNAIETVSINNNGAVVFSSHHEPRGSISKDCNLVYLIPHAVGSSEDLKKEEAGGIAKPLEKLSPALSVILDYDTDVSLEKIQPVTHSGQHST
T2 sequence (P47747 whole entry): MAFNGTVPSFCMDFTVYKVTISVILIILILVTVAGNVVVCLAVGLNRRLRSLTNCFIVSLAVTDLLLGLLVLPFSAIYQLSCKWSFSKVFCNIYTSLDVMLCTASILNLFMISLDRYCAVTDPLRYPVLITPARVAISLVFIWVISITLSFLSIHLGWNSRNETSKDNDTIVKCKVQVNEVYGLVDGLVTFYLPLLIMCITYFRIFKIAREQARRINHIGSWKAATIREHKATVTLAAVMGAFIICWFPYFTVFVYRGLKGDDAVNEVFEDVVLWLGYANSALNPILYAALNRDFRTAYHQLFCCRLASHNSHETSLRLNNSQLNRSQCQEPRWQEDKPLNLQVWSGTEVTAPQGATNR
T5 sequence (H0WCX4 1-619): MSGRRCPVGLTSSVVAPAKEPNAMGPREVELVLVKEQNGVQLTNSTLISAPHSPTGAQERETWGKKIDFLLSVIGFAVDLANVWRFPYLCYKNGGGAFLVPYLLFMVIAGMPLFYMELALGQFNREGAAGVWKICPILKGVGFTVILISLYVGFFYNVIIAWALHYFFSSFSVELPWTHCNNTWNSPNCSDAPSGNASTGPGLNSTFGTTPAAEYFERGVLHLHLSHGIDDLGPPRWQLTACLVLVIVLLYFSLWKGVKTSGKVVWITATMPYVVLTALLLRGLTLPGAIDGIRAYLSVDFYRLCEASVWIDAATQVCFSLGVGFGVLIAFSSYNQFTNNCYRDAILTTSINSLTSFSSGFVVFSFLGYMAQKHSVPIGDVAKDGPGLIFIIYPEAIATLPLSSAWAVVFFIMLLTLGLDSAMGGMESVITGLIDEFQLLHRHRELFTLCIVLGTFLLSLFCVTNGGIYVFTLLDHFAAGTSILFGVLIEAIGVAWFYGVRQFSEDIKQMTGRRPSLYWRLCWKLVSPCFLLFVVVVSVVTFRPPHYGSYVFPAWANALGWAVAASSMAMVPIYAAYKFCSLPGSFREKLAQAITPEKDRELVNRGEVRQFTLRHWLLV

Take `NOCC(=O)O` [(Amino-oxy)Acetic Acid]: in series [1] (reference compound), affinity was put at a Ki of 3.55 µM.
As for `CN1CCCC1c1cccnc1` (stereo not drawn) [Nicotine, reference compound], the inhibition at 1 µM in series [2] amounted to 3.1%; at Histamine (H2) it was 45.9%; in series [3] it was 8%; in series [4], 1.5%; in [5], 4.4%; on GABA uptake site, 12.1%. Besides, the inhibition at 1 µM was 3.2% in [6], 13.5% at Histamine (H3), 10.1% at Opiate (Delta) and 3.3% at Serotonin (5HT1A). Also, the “Receptor Binding Activity Percent Inhibition Average (N = 2)” value on dopamine uptake site was 9.2%; in the series with Serotonin (5HT1), -1.4%; in series [7] it was 6.3%; at Dopamine (D1 Central), 2.6%. Moreover, the “amplitude of the evoked currents” value in series [8] is “more than doubled”. Besides, the “Percent Inhibition” value in series [1] (10^-8 M) was determined as 40%. Further, the half-life result in series [9] is “one to two”.

Source of the values: patent publication US5889029A, “Use of cotinine in treating psychiatric disorders” (priority 1997, dated 1999).
